Test results: patent US10011555B2, “Methods of treating Parkinson's disease” (University of Macau, priority 2013, dated 2018)

How the values were obtained:
[1] = test system: primary cerebellar granule neurons (CGNs); assay: MPP+-induced primary CGNs damage, cell viability by MTT; format: cell-based, Sprague-Dawley rats; details: pre-treated 6 μM to 50 μM for 2 hours, then 150 μM MPP+ for 36 hours
Procedure: Primary cerebellar granule neurons (CGNs) were prepared from 8 days old Sprague-Dawley rats, as described in a previous publication (Du, Bales et al. 1997). CGNs cultured in vitro for 7 days were pre-treated with serial concentrations of compounds 1-5 from 6 μM to 50 μM respectively for 2 hours, vehicle group was incubated with 0.1% DMSO. The cells were then exposed to 150 μM MPP^+ for 36 hours. For assessment of the cell viability, 15 μl of 5 mg/ml MTT solution was added to each well containing cell in 100 μl of medium, and the plates were incubated for 4 hours in a humidified incubator at 37° C. After incubation, 100 μl of absolute DMSO was added and incubated for 10 min. Absorbance at 570 nm of each well was measured with a microplate reader.

PC12 cells = assay: 6-OHDA-induced PC12 cell damage and cytotoxicity on PC12 cells, cell viability by MTT; format: cell-based, Rat
Procedure: Rat pheochromocytoma cells (PC12) cells were seeded in c100 cm dishes at a density of 1.5˜2×10^6 cells/dish. After culturing in a medium with a low serum level (F-12K medium with 0.5% FBS) for 24 hours, the cells were pretreated with serial concentrations of compound 1 from 6 μM to 50 μM for 12 hours. The cells were then exposed to 1 mM 6-OHDA for 2 hours. Cell viability of cells was assessed similarly as described in Example 5.

[2] = test system: TH-positive dopaminergic neurons in the SNpc; assay: TH immunohistochemistry of SNpc in MPTP-injected mice; format: in vivo, C57BL/6J mice
Procedure: Adult male C57BL/6J mice (8-10 weeks of age, 18-22 g) were used in this study. The animals were maintained in 12/12 h light/dark cycle and allowed access to food and water ad libitum. They were allowed to acclimate for 7 days before treatment. […] Then the mice were injected intraperitoneally (i.p.) with 20 mg/kg MPTP hydrochloride (Sigma Aldrich, St. Louis, Mo.), at 2 h internal for total 4 injections. Normal control group were received saline (0.1 mL/10 g) by i.p. One hour prior each MPTP injection, compound 1 (5, 10 and 20 mg/kg), rasagiline (1 mg/kg) and equal volume of vehicle (olive oil, 0.1 mL/10 g) were administrated by i.g. Then, compound 1, rasagiline or vehicle was given by i.g. once per day for total 7 days (day 1-7). Each of six groups was comprised of 10 mice. Mice were sacrificed for tissue preparation on the day 9 as described in FIG. 6. Mice in each group were anesthetized and perfused intracardially with 0.9% sodium chloride containing heparin, and then fixed with 4% paraformaldehyde (PFA). […] The results were analyzed by counting the numbers of TH-positive cells at ×10 magnifications on a stereomicroscope (BX51, Olympus Corp. Japan). TH-positive cells in 8 position-matched sections of each mouse were counted manually by operator who was blinded to the drug treatment. […]

[3] = test system: zebrafish dopaminergic neurons; assay: MPTP-induced dopaminergic neuron loss in zebrafish, whole-mount TH immunostaining; format: in vivo; details: co-treatment with 200 μM MPTP for 48 hours
Procedure: Zebrafish embryo was dechorinated at 1 day post fertilization (dpf) and was cultured under co-treatment of 200 μM MPTP and various concentrations of compound 1 for 48 hours. Afterwards, zebrafish was fixed in 4% paraformaldehyde in PBS for 5 hours, rinsed and stored at −20° C. in 100% EtOH. Whole-mount immunostaining was done by standard methods (Bitzur, Kam et al. 1994). Further, compound 1 can protect MPTP-induced dopaminergic neuron loss in zebrafish in a dose-dependent manner with Emax at the concentration of 5 μM as shown in FIG. 3B in which the results were expressed quantitatively as percentages of area of TH-positive cells in comparison to untreated control group.

zebrafish larvae = assay: MPTP-induced reduction of total distance traveled of zebrafish larvae; format: in vivo; details: 3 dpf larvae co-treated with 200 μM MPTP for 4 days
Procedure: The 3 dpf zebrafish larvae were co-treated with 200 μM MPTP and various concentrations of compound 1 for 4 days. At 7 dpf, the total distance the larvae traveled was recorded using a 96-well plate (with 1 fish/well and 12 larvae per group) filled with 200 μl embryo medium. Larvae were allowed to accommodate in the system for an hour before data acquisition. The swimming pattern of each larva was recorded for 10 min in 3 times, with each record session separated by 10 min. The total distance traveled was estimated as the distance (in mm) that the larva had moved during one session (10 min).

[4] = test system: primary cerebellar granule neurons (CGNs); assay: Synergistic neuroprotective effect of compound 1 and chrysin on MPP+-induced primary CGNs damage; format: cell-based, Sprague-Dawley rats; details: 25 and 50 μM of compound 1, p<0.05
Procedure: Primary cerebellar granule neurons (CGNs) were prepared from 8 days old Sprague-Dawley rats as described (Zhang et al., 2012). […] The cell viability was estimated similarly as in Example 5.
CGNs were also co-treated with compound 1 and chrysin to explore the pharmacological interaction between two compounds.

MPTP-injected mice = assay: Behavioral testing (pole, rotarod, footprint) in MPTP-injected mice; format: in vivo, C57BL/6J mice; details: 5, 10 and 20 mg/kg i.g., 7 days, MPTP 20 mg/kg i.p. x4
Procedure: Adult male C57BL/6J mice (8-10 weeks of age, 18-22 g) were used in this study. The animals were maintained in 12/12 h light/dark cycle and allowed access to food and water ad libitum. They were allowed to acclimate for 7 days before treatment. […] Then the mice were injected intraperitoneally (i.p.) with 20 mg/kg MPTP hydrochloride (Sigma Aldrich, St. Louis, Mo.), at 2 h internal for total 4 injections. Normal control group were received saline (0.1 mL/10 g) by i.p. One hour prior each MPTP injection, compound 1 (5, 10 and 20 mg/kg), rasagiline (1 mg/kg) and equal volume of vehicle (olive oil, 0.1 mL/10 g) were administrated by i.g. Then, compound 1, rasagiline or vehicle was given by i.g. once per day for total 7 days (day 1-7). Each of six groups was comprised of 10 mice. […] All the tests were done between 9 am and 2 pm under normal animal room lighting. The pole test was performed to detect impairment of limb movement. A table tennis ball (5 cm diameter) was equipped on the top of a vertical pole (55 cm length and 1 cm diameter). The pole was wrapped with a double layer of gauze to avoid slipping. The animal was placed head upward on the table tennis ball. […] The system logs the fall as the end of the experiment for that mouse, and the total time on the rotarod was recorded. […] The average retention time on the rod was calculated. […] Their footsteps were recorded on a white absorbing paper.

Question: How did the “concentration of Emax of neuroprotective effect on MPP+-induced primary SD rat CGNs damage” value [1] turn out when `CC(C)[C@@H](CCC(=O)O)C1=CC(C)(O)CCC1=O` (stereo partly drawn) [Compound 3, (4R)-4-(3-hydroxy-3-methyl-6-oxocyclohex-1-enyl)-5-methylhexanoic acid] was run?
Answer: The value was 25 µM.

Question: How did the “concentration of Emax of neuroprotective effect on MPP+-induced primary SD rat CGNs damage” value [1] turn out when `Cc1ccc(O)c(C(CCC(=O)O)C(C)C)c1` (racemic) [Compound 5, 4-(2-hydroxy-5-methylphenyl)-5-methylhexanoic acid] was run?
Answer: The value was 50 µM.

Question: `Cc1ccc(O)c([C@@H](CCC(=O)O)C(C)C)c1` [Compound 4, (S)-4-(2-hydroxy-5-methylphenyl)-5-methylhexanoic acid] was tested. Which “concentration of Emax of neuroprotective effect on MPP+-induced primary SD rat CGNs damage” value [1] did it give?
Answer: Its value is 12 µM.

Question: `CC(C)[C@H](CCC(=O)O)C1=CC(C)(O)CCC1=O` (stereo partly drawn) [Compound 2, (4S)-4-(3-hydroxy-3-methyl-6-oxocyclohex-1-enyl)-5-methylhexanoic acid] was tested. Which “concentration of Emax of neuroprotective effect on MPP+-induced primary SD rat CGNs damage” value [1] did it give?
Answer: The value was 50 µM.

Question: With `O=c1cc(-c2ccccc2)oc2cc(O)c(O)c(O)c12` [baicalein, reference compound] as the compound, how does the “protection of PC12 cells against 6-OHDA-induced neuronal damage” value (PC12 cells; positive control at 100 μM) read?
Answer: Its value is “obviously protected”.

Question: `C#CCN[C@@H]1CCc2ccccc21` [rasagiline, reference compound] was tested. Which “effect on MPTP-induced TH-positive cell body loss in SNpc” value ([2]; rasagiline 1 mg/kg i.g., same schedule) did it give?
Answer: Its value is “prevented against the MPTP-induced TH-positive cell body loss”.

Question: Which results are given for `Cc1ccc(O)c([C@H](CCC(=O)O)C(C)C)c1` [Compound 1, (R)-4-(2-hydroxy-5-methylphenyl)-5-methylhexanoic acid]?
Answer: concentration of Emax of neuroprotective effect on MPP+-induced primary SD rat CGNs damage [1]: 50 µM; concentration of maximum efficacy (Emax) of neuroprotective effect on 6-OHDA-induced PC12 cell damage (PC12 cells; 1 mM 6-OHDA for 2 hours): 50 µM; cytotoxicity on PC12 cells (PC12 cells; all tested concentrations (6 μM to 50 μM), 12 hours): did not exhibit any cytotoxicity; effect on 6-OHDA cytotoxicity to PC12 cells (PC12 cells; pretreated 6 μM to 50 μM for 12 hours, then 1 mM 6-OHDA for 2 hours): could alleviate the cytotoxic effect in a dose-dependent manner; effect on MPTP-induced DA neuron injury [3]: attenuated MPTP-induced DA neuron injury in a dose-dependent manner; concentration of Emax of protection against MPTP-induced dopaminergic neuron loss in zebrafish ([3]; area of TH-positive cells): 5 µM; effect on MPTP-induced reduction of total distance traveled (zebrafish larvae): attenuated MPTP-induced reduction of total distance traveled of the larvae in a dose dependent manner; cell viability vs MPP+ alone [4]: significantly enhanced; effect on movement abnormalities (pole test, foot printing duration and stride length, rotarod) (MPTP-injected mice): largely corrected the movement abnormalities in a dose-dependent manner; effect on MPTP-induced TH-positive cell body loss in SNpc ([2]; compound 1 5, 10 and 20 mg/kg i.g., pre- and post-treatment, 7 days): significantly reduced the MPTP-induced TH-positive cell body loss in a dose-dependent manner
